In the test the target is KRasG12C (M1-K169, biotinylated on the N-terminus) (Homo sapiens (Human), UniProt P01116, G12C). Description: Covalent competition assay (scintillation proximity assay, competition with radiolabeled covalent probe Compound B). The test is classed as binding. Conditions: in vitro KRASG12C activity; 10 nM KRasG12C:GDP, 25 nM radio-ligand and 475 nM unlabelled ligand, incubated 2 hours; read-out: Covalent Competition Assay IC50. The method, then: The cells were lysed by 4 passages through an Avestin Emulsiflex at about 20000 psi and insoluble debris removed by centrifugation and filtered through a 0.45 μm Durapore membrane (Millipore). […] The protein in the flow through was subjected to a final polishing step on a HiLoad 16/60 Superdex 200 prep grade size-exclusion column pre-equilibrated with SEC-buffer (20 mM HEPES pH 7.4, 150 mM NaCl, 5 mM MgCl2, 1 μM GDP).
A scintillation proximity assay (SPA) was used to determine the potency of the compounds. This assay measures the ability of the test compound to compete with the radiolabeled covalent probe for binding to and covalently modify KRASG12C.
A serial dilution of the compounds to be tested is mixed with a fixed concentration of the radiolabeled covalent probe before incubation with KRASG12C:GDP as described below.
The reaction was started by addition of KRasG12C (M1-K169, biotinylated on the N-terminus) to the compounds and incubated for 2 hours with continuous agitation allowing for full modification of KRasG12C with probe or test compounds. […] The assay buffer contained 20 mM Tris-HCl pH 7.5 (Invitrogen), 150 mM NaCl (Sigma Aldrich), 0.1 mM MgCl2 (Sigma Aldrich), and 0.01% Tween-20 (Sigma Aldrich).
Evaluation was carried out using assay data analysis software (such as the standard Novartis in-house Helios software application, Novartis Institutes for BioMedical Research, unpublished) using the methods described in Formenko et al., Robust Regression for high-throughput screening.
Evaluation can also be carried out using commercially available software which is designed to derive IC50 values using 4-parameter fits (e.g. GraphPad Prism, XL fit).

Regarding `C=CC(=O)N1CC2(CC(n3nc(-c4ccc5c(c4)CCN5C(C)=O)c(-c4c(Cl)c(C)cc5[nH]ncc45)c3C)C2)C1` (single isomer, unassigned) [Example 22b], the IC50 was > 50 µM.

With `C=CC(=O)N1CC2(CC(n3nc(-c4ccc5ncnn5c4)c(-c4c(Cl)c(C)cc5[nH]ncc45)c3C)C2)C1` (single isomer, unassigned) [Example 23a], the IC50 is 0.564 µM.

`C=CC(=O)N1CC2(CC(n3nc(-c4ccc5ncnn5c4)c(-c4c(Cl)c(C)cc5[nH]ncc45)c3C)C2)C1` (single isomer, unassigned) [Example 23b]: the concentration for half-maximal inhibition (IC50) worked out at 13.9 µM.

For the compound `C=CC(=O)N1CC2(CC(n3nc(-c4ccc5c(c4)CC(=O)N5C)c(-c4c(Cl)c(C)cc5[nH]ncc45)c3C)C2)C1` (single isomer, unassigned) [Example 24a], the IC50 amounted to 0.071 µM.

Consider `C=CC(=O)N1CC2(CC(n3nc(-c4ccc5c(c4)CC(=O)N5C)c(-c4c(Cl)c(C)cc5[nH]ncc45)c3C)C2)C1` (single isomer, unassigned) [Example 24b], for which the IC50 was > 50 µM.

As to `C=CC(=O)N1CC2(CC(n3nc(-c4ccc5cnccc5c4)c(-c4c(Cl)c(C)cc5[nH]ncc45)c3C)C2)C1` (single isomer, unassigned) [Example 25a], the IC50 was 0.041 µM.

Turning to `C=CC(=O)N1CC2(CC(n3nc(-c4ccc5cnccc5c4)c(-c4c(Cl)c(C)cc5[nH]ncc45)c3C)C2)C1` (single isomer, unassigned) [Example 25b], the IC50 was 7.8 µM.

Turning to `C=CC(=O)N1CC2(CC(n3nc(-c4ccccc4)c(-c4c(Cl)c(C)cc5[nH]ncc45)c3C)C2)C1` (single isomer, unassigned) [Example 26a, 1-{6-[(4M)-4-(5-Chloro-6-methyl-1H-indazol-4-yl)-5-methyl-3-phenyl-1H-pyrazol-1-yl]-2-azaspiro[3.3]heptan-2-yl}prop-2-en-1-one], the 50% inhibitory concentration (IC50) was determined as 0.043 µM.

Turning to `C=CC(=O)N1CC2(CC(n3nc(-c4ccccc4)c(-c4c(Cl)c(C)cc5[nH]ncc45)c3C)C2)C1` (single isomer, unassigned) [Example 26b], the IC50 is 45.6 µM.

In the case of `C=CC(=O)N1CC2(CC(n3nc(-c4cccnc4)c(-c4c(Cl)c(C)cc5[nH]ncc45)c3C)C2)C1` (single isomer, unassigned) [Example 27a], the IC50 is 0.251 µM.

Turning to `C=CC(=O)N1CC2(CC(n3nc(-c4cccnc4)c(-c4c(Cl)c(C)cc5[nH]ncc45)c3C)C2)C1` (single isomer, unassigned) [Example 27b], the IC50 was found to be 19.9 µM.

As to `C=CC(=O)N1CC2(CC(n3nc(-c4ccnc(C)c4)c(-c4c(Cl)ccc5[nH]ncc45)c3C)C2)C1` (single isomer, unassigned) [Example 28a], the IC50 was 1.28 µM.

As for `C=CC(=O)N1CC2(CC(n3nc(-c4ccnc(C)c4)c(-c4c(Cl)ccc5[nH]ncc45)c3C)C2)C1` (single isomer, unassigned) [Example 28b], the IC50 is > 50 µM.

With `C=CC(=O)N1CC2(CC(n3nc(-c4cccc5c4cnn5C)c(-c4c(Cl)c(C)cc5[nH]ncc45)c3C)C2)C1` (single isomer, unassigned) [Example 29a], the IC50 was determined as 0.22 µM.

For the compound `C=CC(=O)N1CC2(CC(n3nc(-c4cccc5c4cnn5C)c(-c4c(Cl)c(C)cc5[nH]ncc45)c3C)C2)C1` (single isomer, unassigned) [Example 29b], the IC50 was 15 µM.

As to `C=CC(=O)N1CC2(CC(n3nc(-c4ccc5c(c4)ncn5C)c(-c4c(Cl)c(C)cc5[nH]ncc45)c3C)C2)C1` (single isomer, unassigned) [Example 30a], the IC50 is 0.103 µM.

Take `C=CC(=O)N1CC2(CC(n3nc(-c4ccc5c(c4)ncn5C)c(-c4c(Cl)c(C)cc5[nH]ncc45)c3C)C2)C1` (single isomer, unassigned) [Example 30b]: the half-inhibitory concentration (IC50) is > 50 µM.

For the compound `C=CC(=O)N1CC2(CC(n3nc(-c4ccc5c(c4)N(C)CCO5)c(-c4c(Cl)c(C)cc5[nH]ncc45)c3C)C2)C1` (single isomer, unassigned) [Example 31a], the IC50 is 13.9 µM.

Take `C=CC(=O)N1CC2(CC(n3nc(-c4ccc5c(c4)N(C)CCO5)c(-c4c(Cl)c(C)cc5[nH]ncc45)c3C)C2)C1` (single isomer, unassigned) [Example 31b]: the IC50 turned out to be 0.374 µM.

On to `C=CC(=O)N1CC2(CC(n3nc(-c4ccc5c(c4)N(C)CC(=O)O5)c(-c4c(Cl)c(C)cc5[nH]ncc45)c3C)C2)C1` (single isomer, unassigned) [Example 32a], for which the IC50 was 0.871 µM.

As for `C=CC(=O)N1CC2(CC(n3nc(-c4ccc5c(c4)N(C)CC(=O)O5)c(-c4c(Cl)c(C)cc5[nH]ncc45)c3C)C2)C1` (single isomer, unassigned) [Example 32b], the half-inhibitory concentration (IC50) is > 50 µM.

With `C=CC(=O)N1CC2(CC(n3nc(-c4ccn5ccnc5c4)c(-c4c(Cl)c(C)cc5[nH]ncc45)c3C)C2)C1` (single isomer, unassigned) [Example 33a], the IC50 was determined as 0.253 µM.

Take `C=CC(=O)N1CC2(CC(n3nc(-c4ccn5ccnc5c4)c(-c4c(Cl)c(C)cc5[nH]ncc45)c3C)C2)C1` (single isomer, unassigned) [Example 33b]: the IC50 was > 50 µM.

As for `C=CC(=O)N1CC2(CC(n3nc(-c4cnn5c4CCC5)c(-c4c(Cl)c(C)cc5[nH]ncc45)c3C)C2)C1` (single isomer, unassigned) [Example 34a], the IC50 stood at 0.827 µM.

On to `C=CC(=O)N1CC2(CC(n3nc(-c4cnn5c4CCC5)c(-c4c(Cl)c(C)cc5[nH]ncc45)c3C)C2)C1` (single isomer, unassigned) [Example 34b], for which the IC50 was > 50 µM.

Regarding `C=CC(=O)N1CC2(CC(n3nc(-c4cnn(S(=O)(=O)C5CC5)c4)c(-c4c(Cl)c(C)cc5[nH]ncc45)c3C)C2)C1` (single isomer, unassigned) [Example 36a], the IC50 was 0.516 µM.

Turning to `C=CC(=O)N1CC2(CC(n3nc(-c4cnn(S(=O)(=O)C5CC5)c4)c(-c4c(Cl)c(C)cc5[nH]ncc45)c3C)C2)C1` (single isomer, unassigned) [Example 36b], the IC50 is > 50 µM.

As for `C=CC(=O)N1CC2(CC(n3nc(-c4cnc5c(cnn5C)c4)c(-c4c(Cl)c(C)cc5[nH]ncc45)c3C)C2)C1` (single isomer, unassigned) [Example 37a], the IC50 was 0.112 µM.

As to `C=CC(=O)N1CC2(CC(n3nc(-c4cnc5c(cnn5C)c4)c(-c4c(Cl)c(C)cc5[nH]ncc45)c3C)C2)C1` (single isomer, unassigned) [Example 37b], the IC50 is > 50 µM.

As for `C=CC(=O)N1CC2(CC(n3nc(-c4cnc5c(c4)ncn5C)c(-c4c(Cl)c(C)cc5[nH]ncc45)c3C)C2)C1` (single isomer, unassigned) [Example 38a], the IC50 worked out at 0.487 µM.

Turning to `C=CC(=O)N1CC2(CC(n3nc(-c4cnc5c(c4)ncn5C)c(-c4c(Cl)c(C)cc5[nH]ncc45)c3C)C2)C1` (single isomer, unassigned) [Example 38b], the IC50 is > 50 µM.

With `C=CC(=O)N1CC2(CC(n3nc(-c4ccc(COCCOC)cc4)c(-c4c(Cl)c(C)cc5[nH]ncc45)c3C)C2)C1` (single isomer, unassigned) [Example 39a], the IC50 turned out to be 0.032 µM.

Consider `C=CC(=O)N1CC2(CC(n3nc(-c4ccc(COCCOC)cc4)c(-c4c(Cl)c(C)cc5[nH]ncc45)c3C)C2)C1` (single isomer, unassigned) [Example 39b], for which the IC50 is > 5 µM.

The values are drawn from patent US11702409B2, “Pyrazolyl derivatives useful as anti-cancer agents” (NOVARTIS AG, priority 2019, dated 2023).
